Source: ChEMBL document CHEMBL4316614, “Design, synthesis and biological evaluation of 1,4-dihydroxyanthraquinone derivatives as anticancer agents” (Bioorg Med Chem Lett, 2019)
Calls of active or inactive are those of the source. No cut-off for these calls is given here.

Key:
DNA topoisomerase II [1] = molecular target: T1, DNA topoisomerase II (Homo sapiens, UniProt P11388+Q02880); test: Inhibition of topoisomerase 2 in human HepG2 cells assessed as reduction in cell growth measured after 72 hrs by MTT assay; assay type: cell-based
L02 = test: Cytotoxicity against human L02 cells assessed as inhibition of cell growth measured after 72 hrs by MTT assay; assay type: cell-based; details: L02, 72 h
DNA topoisomerase II [2] = molecular target: T1, DNA topoisomerase II; test: Inhibition of topoisomerase 2 in human MDA-MB-231 cells assessed as reduction in cell growth measured after 72 hrs by MTT assay; assay type: cell-based
DNA topoisomerase II [3] = molecular target: T1, DNA topoisomerase II; test: Inhibition of topoisomerase 2 in human CNE1 cells assessed as reduction in cell growth measured after 72 hrs by MTT assay; assay type: cell-based
DNA topoisomerase II [4] = molecular target: T1, DNA topoisomerase II; test: Inhibition of topoisomerase 2 in human HeLa cells assessed as reduction in cell growth measured after 72 hrs by MTT assay; assay type: cell-based
DNA topoisomerase II [5] = molecular target: T1, DNA topoisomerase II; test: Inhibition of topoisomerase 2 in human A549 cells assessed as reduction in cell growth measured after 72 hrs by MTT assay; assay type: cell-based
DNA topoisomerase II [6] = molecular target: T1, DNA topoisomerase II; test: Inhibition of topoisomerase 2 in human MCF7 cells assessed as reduction in cell growth measured after 72 hrs by MTT assay; assay type: cell-based
HepG2 [7] = test: Induction of morphological changes in human HepG2 cells assessed as nuclear shrinkage at 2 to 16 uM by confocal microscopic analysis; assay type: functional, cell-based
HepG2 [8] = test: Induction of apoptosis in human HepG2 cells measured after 48 hrs by Annexin V-APC staining based flow cytometry; assay type: functional, cell-based
HepG2 [9] = test: Induction of apoptosis in human HepG2 cells assessed as apoptotic cells at 4 uM measured after 48 hrs by Annexin V-APC staining based flow cytometry (reference value: 5.37%); assay type: functional
HepG2 [10] = test: Induction of morphological changes in human HepG2 cells assessed as appearance of foamy nucleus at 2 to 16 uM by confocal microscopic analysis; assay type: functional, cell-based
[11] = Drug uptake in cytoplasm of human HepG2 cells at 2 to 16 uM by confocal microscopic analysis; assay type: ADME, subcellular; details: hepg2, 16 µM
HepG2 [12] = test: Induction of apoptosis in human HepG2 cells assessed as apoptotic cells at 8 uM measured after 48 hrs by Annexin V-APC staining based flow cytometry (reference value: 5.37%); assay type: functional
HepG2 [13] = test: Induction of apoptosis in human HepG2 cells assessed as cell shrinkage at 4 to 16 uM measured after 48 hrs by Hoechst 33342 staining based fluorescence microscopic analysis; assay type: functional
HepG2 [14] = test: Induction of apoptosis in human HepG2 cells assessed as apoptotic cells at 32 uM measured after 48 hrs by Annexin V-APC staining based flow cytometry (reference value: 5.37%); assay type: functional
HepG2 [15] = test: Induction of apoptosis in human HepG2 cells assessed as apoptotic cells at 16 uM measured after 48 hrs by Annexin V-APC staining based flow cytometry (reference value: 5.37%); assay type: functional
[16] = Drug uptake in nucleus of human HepG2 cells at 2 to 16 uM by confocal microscopic analysis; assay type: ADME, subcellular; details: hepg2, 16 µM
HepG2 [17] = test: Induction of apoptosis in human HepG2 cells assessed as formation of granular apoptotic body formation at 4 to 16 uM measured after 48 hrs by Hoechst 33342 staining based fluorescence microscopic analysis; assay type: functional, cell-based
HepG2 [18] = test: Induction of morphological changes in human HepG2 cells assessed as nuclear deformation at 2 to 16 uM by confocal microscopic analysis; assay type: functional, cell-based

| Structure (SMILES) | IC50 (DNA topoisomerase II [1]) [µM] | IC50 (L02) [µM] | IC50 (DNA topoisomerase II [2]) [µM] | IC50 (DNA topoisomerase II [3]) [µM] | IC50 (DNA topoisomerase II [4]) [µM] | IC50 (DNA topoisomerase II [5]) [µM] | IC50 (DNA topoisomerase II [6]) [µM] | Activity (HepG2 [7]) | Activity (HepG2 [8]) | Activity (HepG2 [9]) [%] | Activity (HepG2 [10]) | Drug uptake [11] | Activity (HepG2 [12]) [%] | Activity (HepG2 [13]) | Activity (HepG2 [14]) [%] | Activity (HepG2 [15]) [%] | Drug uptake [16] | Activity (HepG2 [17]) | Activity (HepG2 [18]) |
| --- | --- | --- | --- | --- | --- | --- | --- | --- | --- | --- | --- | --- | --- | --- | --- | --- | --- | --- | --- |
| O=C1c2ccccc2C(=O)c2c(O)c(C(O)c3ccc(OC(F)(F)F)cc3)cc(O)c21 (centres undefined) | 26.5 | > 50 | 39.5 | 13.7 | 32 | 22.3 | 30.5 | – | – | – | – | – | – | – | – | – | – | – | – |
| O=C1c2ccccc2C(=O)c2c(O)c(C(c3ccsc3)N(CCCl)CCCl)cc(O)c21 (centres undefined) | 13.7 | 35.4 | 22.4 | 23.1 | 19.3 | 21.9 | 22.5 | – | – | – | – | – | – | – | – | – | – | – | – |
| COc1ccc(C(O)c2cc(O)c3c(c2O)C(=O)c2ccccc2C3=O)cc1Br (centres undefined) | 12.8 | > 50 | 43.7 | 16.7 | 29.8 | 24.1 | 45.6 | – | – | – | – | – | – | – | – | – | – | – | – |
| CCOc1ccc(C(O)c2cc(O)c3c(c2O)C(=O)c2ccccc2C3=O)cc1 (centres undefined) | > 50 | > 50 | > 50 | > 50 | > 50 | > 50 | > 50 | – | – | – | – | – | – | – | – | – | – | – | – |
| Cc1ccc(C(O)c2cc(O)c3c(c2O)C(=O)c2ccccc2C3=O)s1 (centres undefined) | 44.7 | > 50 | > 50 | 23.6 | 42.3 | 35.8 | > 50 | – | – | – | – | – | – | – | – | – | – | – | – |
| COc1ccc(C(O)c2cc(O)c3c(c2O)C(=O)c2ccccc2C3=O)cc1OC (centres undefined) | > 50 | > 50 | > 50 | > 50 | > 50 | > 50 | > 50 | – | – | – | – | – | – | – | – | – | – | – | – |
| CSc1ccc(C(O)c2cc(O)c3c(c2O)C(=O)c2ccccc2C3=O)cc1 (centres undefined) | > 50 | > 50 | > 50 | > 50 | > 50 | > 50 | > 50 | – | – | – | – | – | – | – | – | – | – | – | – |
| CC(C)=CC[C@@H](O)C1=CC(=O)c2c(O)ccc(O)c2C1=O [SHIKONIN] | 6.2 | 13 | 7.8 | 12.5 | 6.7 | 16 | 5.7 | – | – | – | – | – | – | – | – | – | – | – | – |
| O=C1c2ccccc2C(=O)c2c(O)c(C(O)c3cc(Br)cs3)cc(O)c21 (centres undefined) | 23.9 | > 50 | 33.3 | 19.7 | 18.4 | 41.5 | 17.5 | – | – | – | – | – | – | – | – | – | – | – | – |
| O=C1c2ccccc2C(=O)c2c(O)ccc(O)c21 [QUINIZARIN] | > 200 | > 200 | > 200 | > 200 | > 200 | > 200 | > 200 | – | – | – | – | – | – | – | – | – | – | – | – |
| O=C1c2ccccc2C(=O)c2c(O)c(C(O)c3ccsc3)cc(O)c21 (centres undefined) | > 50 | > 50 | > 50 | > 50 | > 50 | > 50 | > 50 | – | – | – | – | – | – | – | – | – | – | – | – |
| O=C1c2ccccc2C(=O)c2c(O)c(C(c3ccc(C(F)(F)F)cc3)N(CCCl)CCCl)cc(O)c21 (centres undefined) | > 50 | > 50 | > 50 | 16.1 | > 50 | > 50 | > 50 | – | – | – | – | – | – | – | – | – | – | – | – |
| O=C1c2ccccc2C(=O)c2c(O)c(C(c3ccc(OC(F)(F)F)cc3)N(CCCl)CCCl)cc(O)c21 (centres undefined) | > 50 | > 50 | 34.8 | 11.3 | > 50 | > 50 | 42.8 | – | – | – | – | – | – | – | – | – | – | – | – |
| O=C1c2ccccc2C(=O)c2c(O)c(C(O)c3ccc(Cl)cc3Cl)cc(O)c21 (centres undefined) | 12.5 | > 50 | 34.6 | 12.7 | 18.9 | 17.8 | 28.4 | Active | Dose-dependent effect | 7.38 | Active | Active | 11.56 | Active | 40.13 | 32.87 | Active | Active | Active |
| O=C1c2ccccc2C(=O)c2c(O)c(C(O)c3ccc(Br)s3)cc(O)c21 (centres undefined) | 25.1 | > 50 | 43.9 | 14.4 | 48.1 | 23 | 39.4 | – | – | – | – | – | – | – | – | – | – | – | – |
| O=C1c2ccccc2C(=O)c2c(O)c(C(O)c3cccs3)cc(O)c21 (centres undefined) | 37.9 | > 50 | 45 | 16.6 | 36.2 | 28.9 | > 50 | – | – | – | – | – | – | – | – | – | – | – | – |
| O=C1c2ccccc2C(=O)c2c(O)c(C(O)c3ccc(C(F)(F)F)cc3)cc(O)c21 (centres undefined) | 14.9 | > 50 | 38.1 | 13.7 | 20.7 | 23.3 | 27.4 | – | – | – | – | – | – | – | – | – | – | – | – |
| N#Cc1ccc(C(O)c2cc(O)c3c(c2O)C(=O)c2ccccc2C3=O)cc1 (centres undefined) | 12.8 | > 50 | 26.9 | 12.6 | 14.9 | 17.6 | 28.6 | – | – | – | – | – | – | – | – | – | – | – | – |
| CSc1ccc(C(c2cc(O)c3c(c2O)C(=O)c2ccccc2C3=O)N(CCCl)CCCl)cc1 (centres undefined) | 20.6 | > 50 | 41.4 | 15.4 | > 50 | > 50 | 39.3 | – | – | – | – | – | – | – | – | – | – | – | – |
| COc1cccc2c1C(=O)c1c(O)c3c(c(O)c1C2=O)C[C@@](O)(C(=O)CO)C[C@@H]3O[C@H]1C[C@H](N)[C@H](O)[C@H](C)O1 [DOXORUBICIN] | 2.6 | 3.5 | 3.8 | 1.2 | 3.3 | 2.3 | 1.5 | – | – | – | – | – | – | – | – | – | – | – | – |
| O=C1c2ccccc2C(=O)c2c(O)c(C(O)c3ccc(Cl)s3)cc(O)c21 (centres undefined) | 24.4 | > 50 | 47.2 | 17.75 | 21.2 | 33 | 29.3 | – | – | – | – | – | – | – | – | – | – | – | – |
